Results on 17 compounds are retold here after patent publication US10392389B2, “Heterocyclic compounds for the inhibition of PASK” (BioEnergenix, LLC, priority 2012, dated 2019).

SMILES strings stand for the structures.

The target of one assay is T1, PASK (UniProt #Q96RG2; human recombinant N-terminal GST tagged construct, residues 879-1323) (Homo sapiens, UniProt Q96RG2).
T1 construct: N-terminal GST tagged construct, residues 879-1323; GST (N); host or cells: insect cells
The experiment in a line: PASK ATP Radiochemical Assay. The format is biochemical. The note with it: 33P-ATP, Myelin Basic Protein substrate, read-out: IC50 Kinase Domain. The protocol: (§1) Biochemical Assay for hPASK Activity
PASK ATP Radiochemical Assay
(§2) Purified PASK (UniProt #Q96RG2; human recombinant N-terminal GST tagged construct, residues 879-1323) from insect cells (final concentration 5 nM) is added to freshly prepared Base Reaction Buffer containing 20 mM HEPES (pH 7.5), 10 mM MgCl2, 1 mM EGTA, 0.02% Brij35, 0.02 mg/ml BSA, 0.1 mM Na3VO4, 2 mM DTT, 1% DMSO and Myelin Basic Protein (20 μM final). Test compounds in DMSO are then added and the mixture, followed by delivery of ^33P-ATP (specific activity 0.01 μCi/μl final) to initiate the reaction. The kinase reaction is incubated for 120 min at room temperature. The entire reaction mixture is washed through onto a P81 Phosphocellulose paper and washed three times for 10 minutes in 75 mM phosphoric acid and once in methanol prior to drying and scintillation counting.

In a further assay the target is T2, PASK (Invitrogen) (Homo sapiens, UniProt Q96RG2).
T2 construct: IC50 Kinase Domain; purchased Invitrogen
The experiment in a line: PAS Kinase FRET Assay. The format is biochemical. The note with it: PAS kinase TR-FRET assay (665 nm/615 nm); read-out: IC50 Kinase Domain.
Source text: as §1
The aim of the FRET assay is to determine the inhibition potential of test compounds on targeted kinase. This assay platform provides a homogenous screening method for measuring kinase activity by quantitating the amount of phospho-substrate in solution following a kinase reaction.
In the presence of kinase and ATP, the Ulight-peptide is phosphorylated and captured by an anti-phospho-substrate antibody, which brings the Eu chelate donor and Ulight acceptor dyes into close proximity. Upon excitation at 340 nm, the Eu chelate transfers its energy to the Ulight dye, resulting in a fluorescent light emission at 665 nm.
Titration of kinase at 1 mM ATP was achieved via the following protocol. After making serial three-fold dilutions of PASK (Invitrogen) in reaction buffer across the plate; 5 μl of kinase dilution and 5 μl substrate/ATP mix were added to the wells of the white Optiplate-384 (PerkinElmer). The contents of the plate were and incubated at RT for 1 h. The reaction was stopped by adding 5 μl of stop solution to each test well followed by mixing and incubation at RT for 10 minutes. 5 μl of detection mix (detection antibody diluted in detection buffer) was added; the contents of the plate were mixed and then incubated in the dark for 1 hour at RT. The signal was recorded at TR-FRET mode (665 nm/615 nm). The results were graphed to calculate the EC50.
Titration of ATP at the EC50 concentration of kinase to determine ATP Km,app. was performed using the following method. After making serial dilutions of ATP (Invitrogen), 5 μl of ATP dilution and 5 μl substrate/kinase mix were added to the wells of the white Optiplate-384 (PerkinElmer). The contents of the plate were and incubated at RT for 1 h. The reaction was stopped by adding 5 μl of stop solution to each test well followed by mixing and incubation at RT for 10 minutes. 5 μl of detection mix (detection antibody diluted in detection buffer) was added; the contents of the plate were mixed and then incubated in the dark for 1 hour at RT. The signal was recorded at TR-FRET mode (665 nm/615 nm). The results were graphed to calculate the EC50 as the ATP Km,app.
Compound screening was done via the following method. 10 mM stock solution of test compound in DMSO was prepared by dissolving test compound in DMSO at RT for 1 hour, and then sonicating at 100% output for 8 minutes. If compound is not soluble under this condition, it was diluted to 3 mM. Kinase reaction buffer was prepared containing 10 mM MgCl2, 50 mM HEPES, 1 mM EGTA, 0.01% TWEEN-20, 2 mM DTT. Serial dilutions of the test compounds were prepared at 4× final assay concentrations using Freedom EVO200® dispensing system as follows: 12×10^−5 M, 4×10^−5 M, 1.33×10^−5 M, 4.44×10^−6 M, 1.48×10^−6 M, 4.92×10^−7 M, 1.65×10^−7 M, […], 1.82×10^−8M, 6.09×10^−9, 2.03×10^−9 M. Test compounds (2.5 μl at 4× the final assay concentration) was added to wells using Freedom EVO200® dispensing system. As a positive control, 2.5 μl of positive compound was added to assay wells, and 2.5 μl of DMSO to assay wells as vehicle control. Kinase solution was prepared in reaction buffer at 2× final assay concentration. Kinase solution (5 μl) was added to each well of the assay plate. The substrate and ATP solution was prepared in kinase reaction buffer at 4× final assay concentration. The kinase reaction was started by adding 2.5 μl of substrate+ATP mix solution to each well of the assay plate. The plate is mixed on a plate shaker; then covered and allowed to react for 2 hours in the dark at 25° C. without shaking. The reaction was stopped by adding 5 μl of stop solution to each test well followed by mixing and incubation at RT for 10 minutes in the dark. 5 μl of detection mix (detection antibody diluted in detection buffer) was added; the contents of the plate were mixed and then incubated in the dark for 1 hour at RT. The signal was recorded at TR-FRET mode (665 nm/615 nm).

Assay [1] has as its target T3, CK2a2 (NP_001887; human full-length protein, GST tagged) (Homo sapiens, UniProt P19784).
T3 construct: human full-length protein, GST tagged; GST; host or cells: insect cells
Kind of assay: Biochemical Assay for CK2 Activity. Conditions: 33P-ATP radiochemical assay, CK2 sub [RRRDDDSDDD]. The protocol:
Biochemical Assay for CK2 Activity
as §2, with “Purified CK2a2 (NP_001887;” for “Purified PASK (UniProt #Q96RG2;”, “human full-length protein,” for “human recombinant N-terminal”, “GST tagged)” for “GST tagged construct, residues 879-1323)”, “concentration 1.2” for “concentration 5”, “mM Hepes” for “mM HEPES”, “and CK2 sub [RRRDDDSDDD]” for “and Myelin Basic Protein”

Assay [2] addresses T4, PIM1 (NP_002639; human full-length protein, 6×His tagged) (Homo sapiens, UniProt P11309).
T4 construct: human full-length protein, 6×His tagged; 6xHis; host or cells: insect cells
The experiment in a line: Biochemical Assay for PIM1 Activity. Conditions: 33P-ATP radiochemical assay, S6K/Rsk2 peptide 2 substrate. The protocol:
Biochemical Assay for PIM1 Activity
as §2, with “Purified PIM1 (NP_002639;” for “Purified PASK (UniProt #Q96RG2;”, “human full-length protein, 6×His tagged)” for “human recombinant N-terminal GST tagged construct, residues 879-1323)”, “concentration 1.0” for “concentration 5”, “mM Hepes” for “mM HEPES”, “and substrate S6K/Rsk2 peptide 2 [KKRNRTLTK]” for “and Myelin Basic Protein”, “activity 10” for “activity 0.01”

T2 sequence (Q96RG2 999-1251 limits assumed): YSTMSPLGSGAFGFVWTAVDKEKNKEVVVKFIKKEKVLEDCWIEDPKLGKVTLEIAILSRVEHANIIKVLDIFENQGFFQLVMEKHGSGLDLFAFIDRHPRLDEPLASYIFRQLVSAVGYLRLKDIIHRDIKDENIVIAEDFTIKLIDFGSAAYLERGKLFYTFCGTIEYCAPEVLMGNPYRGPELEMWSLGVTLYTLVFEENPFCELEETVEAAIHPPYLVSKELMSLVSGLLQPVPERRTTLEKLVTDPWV
T1 sequence (Q96RG2 879-1323, stated change not applied): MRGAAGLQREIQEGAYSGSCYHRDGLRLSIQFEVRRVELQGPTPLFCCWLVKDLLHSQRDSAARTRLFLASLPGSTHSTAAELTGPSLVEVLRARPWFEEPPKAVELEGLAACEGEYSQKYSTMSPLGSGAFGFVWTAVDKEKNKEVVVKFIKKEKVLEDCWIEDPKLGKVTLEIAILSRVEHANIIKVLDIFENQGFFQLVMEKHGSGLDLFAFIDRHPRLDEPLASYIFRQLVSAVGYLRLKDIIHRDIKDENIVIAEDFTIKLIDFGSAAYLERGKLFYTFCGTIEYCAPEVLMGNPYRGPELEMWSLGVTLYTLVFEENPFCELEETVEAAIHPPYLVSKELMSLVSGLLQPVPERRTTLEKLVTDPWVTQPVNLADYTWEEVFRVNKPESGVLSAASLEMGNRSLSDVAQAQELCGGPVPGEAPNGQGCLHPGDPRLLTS
T3 sequence (P19784 whole entry): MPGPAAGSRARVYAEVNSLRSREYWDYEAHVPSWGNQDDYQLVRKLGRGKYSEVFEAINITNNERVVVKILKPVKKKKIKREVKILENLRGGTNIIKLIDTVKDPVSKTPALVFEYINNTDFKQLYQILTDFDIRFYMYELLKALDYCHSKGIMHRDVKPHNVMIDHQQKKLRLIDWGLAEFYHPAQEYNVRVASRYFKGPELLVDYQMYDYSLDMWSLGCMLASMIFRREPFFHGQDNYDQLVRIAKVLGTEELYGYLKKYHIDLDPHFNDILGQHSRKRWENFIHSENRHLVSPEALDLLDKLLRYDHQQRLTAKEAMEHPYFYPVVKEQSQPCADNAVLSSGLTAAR
T4 sequence (P11309 whole entry): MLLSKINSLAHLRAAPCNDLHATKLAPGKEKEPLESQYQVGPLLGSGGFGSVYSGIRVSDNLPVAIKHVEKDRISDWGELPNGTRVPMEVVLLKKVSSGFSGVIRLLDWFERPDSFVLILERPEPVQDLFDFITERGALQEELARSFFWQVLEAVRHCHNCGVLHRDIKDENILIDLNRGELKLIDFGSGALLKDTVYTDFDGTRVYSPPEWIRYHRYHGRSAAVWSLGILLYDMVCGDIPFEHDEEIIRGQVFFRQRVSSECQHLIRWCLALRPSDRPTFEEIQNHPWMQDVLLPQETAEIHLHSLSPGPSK

Turning to `O=c1cc(-c2ccc3c(c2)OCO3)[nH]c2c(-c3ncco3)cnn12` [Example 1, 5-(2H-1,3-benzodioxol-5-yl)-3-(1,3-oxazol-2-yl)-4H,7H-pyrazolo[1,5-a]pyrimidin-7-one], the IC50 at PASK and on PASK (Invitrogen) was not above 10 µM each time.

With `Cc1nn2c(=O)cc(-c3ccc4c(c3)OCO4)[nH]c2c1-c1ncco1` [Example 2, 5-(2H-1,3-benzodioxol-5-yl)-2-methyl-3-(1,3-oxazol-2-yl)-4H,7H-pyrazolo[1,5-a]pyrimidin-7-one], the half-inhibitory concentration (IC50) (at PASK; on PASK (Invitrogen); in assay [1]; in assay [2]) was not above 10 µM in each case.

Take `CCn1ncc2cc(-c3cc(=O)n4ncc(-c5cc(C)n[nH]5)c4[nH]3)ccc21` [Example 68, 5-(1-ethyl-1H-indazol-5-yl)-3-(3-methyl-1H-pyrazol-5-yl)pyrazolo[1,5-a]pyrimidin-7(4H)-one]: the IC50 (at PASK; in assay [1]; in assay [2]) was not above 10 µM each time.

On to `Cc1noc2ccc(-c3cc(=O)n4ncc(-c5ncco5)c4[nH]3)cc12` [Example 110, 5-(3-methylbenzo[d]isoxazol-5-yl)-3-(oxazol-2-yl)pyrazolo[1,5-a]pyrimidin-7(4H)-one], for which, at PASK (Invitrogen), the IC50 is not above 10 µM.

For `CCn1ncc2ccc(-c3cc(=O)n4ncc(-c5nc(C)no5)c4[nH]3)cc21` [Example 111, 5-(1-Ethyl-1H-indazol-6-yl)-3-(3-methyl-1,2,4-oxadiazol-5-yl)pyrazolo[1,5-a]pyrimidin-7(4H)-one], at PASK (Invitrogen), the IC50 was not above 10 µM.

`CCn1ncc2ccc(-c3cc(=O)n4ncc(-c5ncc(C)o5)c4[nH]3)cc21` [Example 112, 5-(1-ethyl-1H-indazol-6-yl)-3-(5-methyloxazol-2-yl)pyrazolo[1,5-a]pyrimidin-7(4H)-one]: the 50% inhibitory concentration (IC50) at PASK (Invitrogen) was not above 10 µM.

For the compound `O=c1cc(-c2ccc(Cl)cn2)[nH]c2c(-c3ncco3)cnn12` [Example 113, 5-(5-chloropyridin-2-yl)-3-(1,3-oxazol-2-yl)-4H,7H-pyrazolo[1,5-a]pyrimidin-7-one], the IC50 on PASK (Invitrogen) was more than 10 µM.

On to `CCc1nn2c(=O)cc(-c3ccc4c(cnn4CC)c3)[nH]c2c1-c1nc(C)no1` [Example 114, 2-ethyl-5-(1-ethyl-1H-indazol-5-yl)-3-(3-methyl-1,2,4-oxadiazol-5-yl)pyrazolo[1,5-a]pyrimidin-7(4H)-one], for which the concentration for half-maximal inhibition (IC50) at PASK (Invitrogen) was not above 10 µM.

With `CCn1ncc2cc(-c3cc(=O)n4nc(C)c(-c5nc(C)no5)c4[nH]3)ccc21` [Example 115, 5-(1-ethyl-1H-indazol-5-yl)-2-methyl-3-(3-methyl-1,2,4-oxadiazol-5-yl)-4H,7H-pyrazolo[1,5-a]pyrimidin-7-one], on PASK (Invitrogen), the 50% inhibitory concentration (IC50) was not above 10 µM.

Turning to `CCCc1nn2c(=O)cc(-c3ccc4c(cnn4CC)c3)[nH]c2c1-c1nc(C)no1` [Example 116, 5-(1-ethyl-1H-indazol-5-yl)-3-(3-methyl-1,2,4-oxadiazol-5-yl)-2-propyl-4H,7H-pyrazolo[1,5-a]pyrimidin-7-one], at PASK (Invitrogen), the concentration for half-maximal inhibition (IC50) was not above 10 µM.

`CCc1nn2c(=O)cc(-c3ccc(Cl)c(OC)c3)[nH]c2c1-c1nc(C)no1` [Example 117, 5-(4-chloro-3-methoxyphenyl)-2-ethyl-3-(3-methyl-1,2,4-oxadiazol-5-yl)-4H,7H-pyrazolo[1,5-a]pyrimidin-7-one]: at PASK (Invitrogen), the IC50 was not above 10 µM.

As to `Cc1noc2cc(-c3cc(=O)n4ncc(-c5ncco5)c4[nH]3)ccc12` [Example 118, 5-(3-methylbenzo[d]isoxazol-6-yl)-3-(oxazol-2-yl)pyrazolo[1,5-a]pyrimidin-7(4H)-one], at PASK (Invitrogen), the IC50 was not above 10 µM.

`Cc1cnc(-c2cnn3c(=O)cc(-c4ccc5c(C)noc5c4)[nH]c23)o1` [Example 119, 5-(3-Methylbenzo[d]isoxazol-6-yl)-3-(5-methyloxazol-2-yl)pyrazolo[1,5-a]pyrimidin-7(4H)-one]: the IC50 on PASK (Invitrogen) is not above 10 µM.

As for `CCc1noc2cc(-c3cc(=O)n4ncc(-c5ncco5)c4[nH]3)ccc12` [Example 120, 5-(3-Ethylbenzo[d]isoxazol-6-yl)-3-(oxazol-2-yl)pyrazolo[1,5-a]pyrimidin-7(4H)-one], the 50% inhibitory concentration (IC50) at PASK (Invitrogen) was not above 10 µM.

Consider `CCc1noc2cc(-c3cc(=O)n4ncc(-c5ncc(C)o5)c4[nH]3)ccc12` [Example 121, 5-(3-ethylbenzo[d]isoxazol-6-yl)-3-(5-methyloxazol-2-yl)pyrazolo[1,5-a]pyrimidin-7(4H)-one], for which the IC50 at PASK (Invitrogen) was not above 10 µM.

As to `Cc1noc2cc(-c3cc(=O)n4ncc(C(N)=O)c4[nH]3)ccc12` [Example 122, 5-(3-methylbenzo[d]isoxazol-6-yl)-7-oxo-4,7-dihydropyrazolo[1,5-a]pyrimidine-3-carboxamide], the concentration for half-maximal inhibition (IC50) on PASK (Invitrogen) is not above 10 µM.

With `CCc1noc2cc(-c3cc(=O)n4ncc(C(N)=O)c4[nH]3)ccc12` [Example 123, 5-(3-ethylbenzo[d]isoxazol-6-yl)-7-oxo-4,7-dihydropyrazolo[1,5-a]pyrimidine-3-carboxamide], at PASK (Invitrogen), the IC50 was not above 10 µM.

By IC50 is commonly meant the midpoint of a concentration-inhibition curve.
